Assay results from patent US9693942B2 (NESTEC S.A., priority 2012, dated 2017).

Tests used:
B16 murine melanocytes = assay: Production of melanin by B16 murine melanocyte cell line; type: cell-based; details: kojic acid 400 μg/mL, 72 hours, B16 cells, total melanin (extracellular and intracellular), OD 405 nm
Procedure: B16 cells were cultured in DMEM 1 g/L glucose without phenol red supplemented with 10% foetal calf serum, in a humidified chamber at 37° C. and containing 5% CO2. […] This was performed in the presence or absence of NDP-MSH, an analog of MSH (melanocyte-stimulating hormone). The total quantity of melanin (extracellular and intracellular) was evaluated by measuring the optical density at 405 nm of each sample against melanin standards in the presence or absence of NDP-MSH. The control condition corresponds to a culture of B16 murine melanocytes treated just with the medium, no other compound being added.

tyrosinase = assay: Production of tyrosinase by B16 murine melanocyte cell line (immunolabeling); type: cell-based; details: kojic acid 400 μg/mL, 48 hours, B16 cells
Procedure: B16 cells were cultured in DMEM 1 g/L glucose without phenol red supplemented with 10% foetal calf serum, in a humidified chamber at 37° C. and containing 5% CO2. […] The production of tyrosinase was evaluated by immunolabeling. The control condition corresponds to a culture of B16 murine melanocytes treated just with the medium, no other compound being added.

## O=c1cc(CO)occ1O [kojic acid]
B16 murine melanocytes
  melanin production, percentage relative to the control: 48%
tyrosinase
  production of tyrosinase relative to the control: decreased
